The results in this text go back to patent US10246426B2, “Triazole compounds as T-type calcium channel blockers” (IDORSIA PHARMACEUTICALS LTD, priority 2014, dated 2019).

Structures are written as SMILES.

For the experiment, the target named is Cav3.2 (Homo sapiens, UniProt O95180). The experiment can be described thus: Calcium flux FLIPR assay, HEK293 cells recombinantly expressing Cav3.2. It counts as cell-based. The note with it: Cav3.2-channel, Ca2+ entry stimulated by 10 mM CaCl2. In a few lines:
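Fluo-4-loaded HEK293 cells stably expressing Cav3.2, seeded overnight at 37 °C; compounds diluted in TEAC buffer (pH 7.2) and preincubated 3 min before Ca2+ entry triggered with CaCl2 at 10 mM final. Area under FLIPR fluorescence trace fitted sigmoidally; IC50 relative to vehicle signal.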

Chain of Cav3.2 (O95180 whole entry, looked up): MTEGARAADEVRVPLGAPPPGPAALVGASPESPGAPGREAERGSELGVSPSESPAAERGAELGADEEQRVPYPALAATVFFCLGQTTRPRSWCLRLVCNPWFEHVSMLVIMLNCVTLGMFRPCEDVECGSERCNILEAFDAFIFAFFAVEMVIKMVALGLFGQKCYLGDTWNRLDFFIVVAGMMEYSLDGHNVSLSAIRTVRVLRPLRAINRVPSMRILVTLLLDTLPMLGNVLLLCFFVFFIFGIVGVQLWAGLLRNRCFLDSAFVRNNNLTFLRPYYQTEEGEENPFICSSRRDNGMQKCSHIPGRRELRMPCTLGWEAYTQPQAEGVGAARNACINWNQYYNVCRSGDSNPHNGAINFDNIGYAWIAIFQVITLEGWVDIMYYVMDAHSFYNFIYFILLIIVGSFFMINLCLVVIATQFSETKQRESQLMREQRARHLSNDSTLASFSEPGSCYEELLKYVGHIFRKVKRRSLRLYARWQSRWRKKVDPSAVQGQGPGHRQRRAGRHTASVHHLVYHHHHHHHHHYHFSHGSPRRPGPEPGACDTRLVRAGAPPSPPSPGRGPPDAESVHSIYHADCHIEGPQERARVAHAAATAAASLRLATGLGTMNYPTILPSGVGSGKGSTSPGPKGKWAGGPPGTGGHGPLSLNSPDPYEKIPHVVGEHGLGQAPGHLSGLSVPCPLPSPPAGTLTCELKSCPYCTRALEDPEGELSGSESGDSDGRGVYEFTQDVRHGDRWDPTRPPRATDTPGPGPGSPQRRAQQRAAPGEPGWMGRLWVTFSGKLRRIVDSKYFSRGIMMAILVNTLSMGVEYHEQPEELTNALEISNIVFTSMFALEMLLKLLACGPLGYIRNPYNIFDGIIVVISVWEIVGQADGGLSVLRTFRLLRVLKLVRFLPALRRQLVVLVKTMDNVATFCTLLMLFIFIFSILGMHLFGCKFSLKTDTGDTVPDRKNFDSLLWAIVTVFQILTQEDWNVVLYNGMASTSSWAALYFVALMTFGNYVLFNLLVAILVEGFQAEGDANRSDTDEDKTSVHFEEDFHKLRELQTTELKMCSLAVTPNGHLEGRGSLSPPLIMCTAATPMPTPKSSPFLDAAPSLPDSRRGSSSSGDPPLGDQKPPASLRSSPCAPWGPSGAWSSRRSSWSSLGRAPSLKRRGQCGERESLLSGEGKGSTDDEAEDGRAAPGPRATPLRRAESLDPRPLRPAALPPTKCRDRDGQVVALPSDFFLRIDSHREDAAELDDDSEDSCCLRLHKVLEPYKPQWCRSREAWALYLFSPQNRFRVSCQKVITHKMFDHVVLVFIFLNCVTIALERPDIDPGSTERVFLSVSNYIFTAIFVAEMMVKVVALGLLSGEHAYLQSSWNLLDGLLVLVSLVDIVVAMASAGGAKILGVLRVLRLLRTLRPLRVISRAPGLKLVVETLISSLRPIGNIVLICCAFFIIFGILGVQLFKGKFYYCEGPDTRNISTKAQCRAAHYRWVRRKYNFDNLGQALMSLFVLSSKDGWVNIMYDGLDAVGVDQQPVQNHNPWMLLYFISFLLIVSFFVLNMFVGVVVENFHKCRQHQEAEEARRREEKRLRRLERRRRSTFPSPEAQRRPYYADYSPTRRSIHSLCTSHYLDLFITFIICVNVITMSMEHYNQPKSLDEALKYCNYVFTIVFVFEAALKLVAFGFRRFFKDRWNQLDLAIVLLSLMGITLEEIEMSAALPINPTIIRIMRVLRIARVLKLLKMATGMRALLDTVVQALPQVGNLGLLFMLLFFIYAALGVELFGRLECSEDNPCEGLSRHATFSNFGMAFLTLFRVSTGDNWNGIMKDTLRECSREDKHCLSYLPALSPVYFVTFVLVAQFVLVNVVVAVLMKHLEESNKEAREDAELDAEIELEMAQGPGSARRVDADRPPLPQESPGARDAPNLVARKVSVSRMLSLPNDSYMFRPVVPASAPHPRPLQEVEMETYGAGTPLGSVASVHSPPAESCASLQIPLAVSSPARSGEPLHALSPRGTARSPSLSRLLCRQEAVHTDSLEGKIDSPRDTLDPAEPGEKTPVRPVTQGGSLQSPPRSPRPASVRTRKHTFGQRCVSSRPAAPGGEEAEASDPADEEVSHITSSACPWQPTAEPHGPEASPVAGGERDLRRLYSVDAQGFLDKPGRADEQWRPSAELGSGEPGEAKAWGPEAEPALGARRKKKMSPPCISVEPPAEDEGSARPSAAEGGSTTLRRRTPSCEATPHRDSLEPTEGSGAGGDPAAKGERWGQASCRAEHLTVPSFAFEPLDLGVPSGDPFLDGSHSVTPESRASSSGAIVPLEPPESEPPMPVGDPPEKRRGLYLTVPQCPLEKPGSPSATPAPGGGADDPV

As usually defined, the IC50 is the concentration at which inhibition is half-maximal. Regarding `COc1ccc(Cn2ncc(NC(=O)Cc3ccc(C4(F)COC4)cc3)n2)cc1F` [Example 127, N-[2-(3-Fluoro-4-methoxy-benzyl)-2H-[1,2,3]triazol-4-yl]-2-[4-(3-fluoro-oxetan-3-yl)-phenyl]-acetamide], the IC50 was determined as 110 nM.

On to `CCn1ncc2cc(CC(=O)Nc3cnn(Cc4ccc(OC)c(F)c4)n3)ccc21` [Example 128, 2-(1-Ethyl-1H-indazol-5-yl)-N-[2-(3-fluoro-4-methoxy-benzyl)-2H-[1,2,3]triazol-4-yl]-acetamide], for which the IC50 is 150 nM.

Take `COc1ccc(Cn2ncc(NC(=O)Cc3ccc4c(c3)c(C)cn4C)n2)cc1F` [Example 129, 2-(1,3-Dimethyl-1H-indol-5-yl)-N-[2-(3-fluoro-4-methoxy-benzyl)-2H-[1,2,3]triazol-4-yl]-acetamide]: the IC50 turned out to be 48 nM. Next, `COc1ccc(Cn2ncc(NC(=O)Cc3ccc(C(C)(C)C)cc3)n2)cc1F` [Example 130, 2-(4-tert-Butyl-phenyl)-N-[2-(3-fluoro-4-methoxy-benzyl)-2H-[1,2,3]triazol-4-yl]-acetamide]: 62 nM; `N#Cc1ccc(Cn2ncc(NC(=O)Cc3ccc(OCC4COC4)cc3)n2)cc1F` [Example 131, N-[2-(4-Cyano-3-fluoro-benzyl)-2H-[1,2,3]triazol-4-yl]-2-[4-(oxetan-3-ylmethoxy)-phenyl]-acetamide]: 210 nM; `Cn1ncc2ccc(CC(=O)Nc3cnn(Cc4ccc(C#N)c(F)c4)n3)cc21` [Example 132, N-[2-(4-Cyano-3-fluoro-benzyl)-2H-[1,2,3]triazol-4-yl]-2-(1-methyl-1H-indazol-6-yl)-acetamide]: 180 nM.

Regarding `CCn1ncc2cc(CC(=O)Nc3cnn(Cc4ccc(C#N)c(F)c4)n3)ccc21` [Example 139, N-[2-(4-Cyano-3-fluoro-benzyl)-2H-[1,2,3]triazol-4-yl]-2-(1-ethyl-1H-indazol-5-yl)-acetamide], the IC50 stood at 69 nM.

As to `Cc1cn(C)c2ccc(CC(=O)Nc3cnn(Cc4ccc(C#N)c(F)c4)n3)cc12` [Example 140, N-[2-(4-Cyano-3-fluoro-benzyl)-2H-[1,2,3]triazol-4-yl]-2-(1,3-dimethyl-1H-indol-5-yl)-acetamide], the IC50 was 14 nM.

As to `COc1c(F)cc(Cn2ncc(NC(=O)Cc3ccc(OCC4COC4)cc3)n2)cc1F` [Example 141, N-[2-(3,5-Difluoro-4-methoxy-benzyl)-2H-[1,2,3]triazol-4-yl]-2-[4-(oxetan-3-ylmethoxy)-phenyl]-acetamide], the IC50 was 86 nM. In the case of `COc1c(F)cc(Cn2ncc(NC(=O)Cc3ccc4cnn(C)c4c3)n2)cc1F` [Example 142, N-[2-(3,5-Difluoro-4-methoxy-benzyl)-2H-[1,2,3]triazol-4-yl]-2-(1-methyl-1H-indazol-6-yl)-acetamide], the IC50 turned out to be 88 nM. As for `COc1c(F)cc(Cn2ncc(NC(=O)Cc3ccc(C4(OC)COC4)cc3)n2)cc1F` [Example 143, N-[2-(3,5-Difluoro-4-methoxy-benzyl)-2H-[1,2,3]triazol-4-yl]-2-[4-(3-methoxy-oxetan-3-yl)-phenyl]-acetamide], the IC50 was found to be 76 nM. For `COc1c(F)cc(Cn2ncc(NC(=O)Cc3ccc(OCC4(C)COC4)cc3)n2)cc1F` [Example 144, N-[2-(3,5-Difluoro-4-methoxy-benzyl)-2H-[1,2,3]triazol-4-yl]-2-[4-(3-methyl-oxetan-3-ylmethoxy)-phenyl]-acetamide], the IC50 stood at 56 nM. On to `COc1c(F)cc(Cn2ncc(NC(=O)Cc3ccc(C4(C(F)(F)F)CC4)cc3)n2)cc1F` [Example 145, N-[2-(3,5-Difluoro-4-methoxy-benzyl)-2H-[1,2,3]triazol-4-yl]-2-[4-(1-trifluoromethyl-cyclopropyl)-phenyl]-acetamide], for which the IC50 worked out at 120 nM. `COc1c(F)cc(Cn2ncc(NC(=O)Cc3ccc(OC4CC(F)(F)C4)cc3)n2)cc1F` [Example 146, 2-[4-(3,3-Difluoro-cyclobutoxy)-phenyl]-N-[2-(3,5-difluoro4-methoxy-benzyl)-2H-[1,2,3]triazol-4-yl]-acetamide]: the IC50 amounted to 810 nM. Under `COc1c(F)cc(Cn2ncc(NC(=O)Cc3ccc(N4CCC(F)(F)C4)nc3)n2)cc1F` [Example 147, N-[2-(3,5-Difluoro-4-methoxy-benzyl)-2H-[1,2,3]triazol-4-yl]-2-[6-(3,3-difluoro-pyrrolidin-1-yl)-pyridin-3-yl]-acetamide] stands 13 nM; under `COc1c(F)cc(Cn2ncc(NC(=O)Cc3ccc(C4(F)COC4)cc3)n2)cc1F` [Example 148, N-[2-(3,5-Difluoro-4-methoxy-benzyl)-2H-[1,2,3]triazol-4-yl]-2-[4-(3-fluoro-oxetan-3-yl)-phenyl]-acetamide], 35 nM. On to `CCn1ncc2cc(CC(=O)Nc3cnn(Cc4cc(F)c(OC)c(F)c4)n3)ccc21` [Example 149, N-[2-(3,5-Difluoro-4-methoxy-benzyl)-2H-[1,2,3]triazol-4-yl]-2-(1-ethyl-1H-indazol-5-yl)-acetamide], for which the IC50 amounted to 29 nM.

As for `COc1c(F)cc(Cn2ncc(NC(=O)Cc3ccc4c(c3)c(C)cn4C)n2)cc1F` [Example 150, N-[2-(3,5-Difluoro-4-methoxy-benzyl)-2H-[1,2,3]triazol-4-yl]-2-(1,3-dimethyl-1H-indol-5-yl)-acetamide], the IC50 came to 16 nM. Take `COc1cc(Cn2ncc(NC(=O)Cc3ccc4c(cnn4C)c3)n2)ccc1F` [Example 151, N-[2-(4-Fluoro-3-methoxy-benzyl)-2H-[1,2,3]triazol-4-yl]-2-(1-methyl-1H-indazol-5-yl)-acetamide]: the IC50 is 73 nM. Regarding `COc1ccc(Cn2ncc(NC(=O)Cc3ccc4c(cnn4C)c3)n2)cc1F` [Example 152, N-[2-(3-Fluoro-4-methoxy-benzyl)-2H-[1,2,3]triazol-4-yl]-2-(1-methyl-1H-indazol-5-yl)-acetamide], the IC50 was 91 nM. Under `COc1cc(Cn2ncc(NC(=O)Cc3ccc(C(C)C)cc3)n2)ccc1F` [Example 153, N-[2-(4-Fluoro-3-methoxy-benzyl)-2H-[1,2,3]triazol-4-yl]-2-(4-isopropyl-phenyl)-acetamide] stands 70 nM; under `COc1ccc(Cn2ncc(NC(=O)Cc3ccc(C(C)C)cc3)n2)cc1F` [Example 154, N-[2-(3-Fluoro-4-methoxy-benzyl)-2H-[1,2,3]triazol-4-yl]-2-(4-isopropyl-phenyl)-acetamide], 44 nM. Next, `COc1cc(Cn2ncc(NC(=O)Cc3ccc(N4CCCC4)nc3)n2)ccc1F` [Example 155, N-[2-(4-Fluoro-3-methoxy-benzyl)-2H-[1,2,3]triazol-4-yl]-2-(6-pyrrolidin-1-yl-pyridin-3-yl)-acetamide]: 140 nM; `COc1ccc(Cn2ncc(NC(=O)Cc3ccc(N4CCCC4)nc3)n2)cc1F` [Example 156, N-[2-(3-Fluoro-4-methoxy-benzyl)-2H-[1,2,3]triazol-4-yl]-2-(6-pyrrolidin-1-yl-pyridin-3-yl)-acetamide]: 70 nM. With `CC(C)(C#N)c1ccc(CC(=O)Nc2cnn(Cc3ccc(C#N)c(F)c3)n2)cc1` [Example 157, 2-[4-(Cyano-dimethyl-methyl)-phenyl]-N-[2-(4-cyano-3-fluoro-benzyl)-2H-[1,2,3]triazol-4-yl]-acetamide], the IC50 is 31 nM. On to `COc1cc(Cn2ncc(NC(=O)Cc3ccc(C(C)(C)C)cc3)n2)cc(F)c1C#N` [Example 158, 2-(4-tert-Butyl-phenyl)-N-[2-(4-cyano-3-fluoro-5-methoxy-benzyl)-2H-[1,2,3]triazol-4-yl]-acetamide], for which the IC50 was found to be 240 nM. For the compound `N#Cc1ccc(Cn2ncc(NC(=O)Cc3ccc(C(F)(F)F)cc3)n2)cc1F` [Example 159, N-[2-(4-Cyano-3-fluoro-benzyl)-2H-[1,2,3]triazol-4-yl]-2-(4-trifluoromethyl-phenyl)-acetamide], the IC50 was 61 nM. Consider `N#Cc1ccc(Cn2ncc(NC(=O)Cc3cnc(N4CCCC4)c(F)c3)n2)cc1F` [Example 161, N-[2-(4-Cyano-3-fluoro-benzyl)-2H-[1,2,3]triazol-4-yl]-2-(5-fluoro-6-pyrrolidin-1-yl-pyridin-3-yl)-acetamide], for which the IC50 stood at 25 nM. Take `Cc1cc(Cn2ncc(NC(=O)Cc3ccc(C(C)(C)C)cc3)n2)ccc1C#N` [Example 162, 2-(4-tert-Butyl-phenyl)-N-[2-(4-cyano-3-methyl-benzyl)-2H-[1,2,3]triazol-4-yl]-acetamide]: the IC50 was 36 nM. As for `Cc1cc(Cn2ncc(NC(=O)Cc3ccc4cnn(C)c4c3)n2)ccc1C#N` [Example 163, N-[2-(4-Cyano-3-methyl-benzyl)-2H-[1,2,3]triazol-4-yl]-2-(1-methyl-1H-indazol-6-yl)-acetamide], the IC50 worked out at 330 nM.

`Cc1cc(Cn2ncc(NC(=O)Cc3ccc4c(cnn4C)c3)n2)ccc1C#N` [Example 164, N-[2-(4-Cyano-3-methyl-benzyl)-2H-[1,2,3]triazol-4-yl]-2-(1-methyl-1H-indazol-5-yl)-acetamide]: the IC50 is 110 nM. Turning to `Cc1cc(Cn2ncc(NC(=O)Cc3ccc(C(C)C)cc3)n2)ccc1C#N` [Example 165, N-[2-(4-Cyano-3-methyl-benzyl)-2H-[1,2,3]triazol-4-yl]-2-(4-isopropyl-phenyl)-acetamide], the IC50 was 18 nM.

Take `Cc1cc(Cn2ncc(NC(=O)Cc3ccc(OC4CC(F)(F)C4)cc3)n2)ccc1C#N` [Example 166, N-[2-(4-Cyano-3-methyl-benzyl)-2H-[1,2,3]triazol-4-yl]-2-[4-(3,3-difluoro-cyclobutoxy)-phenyl]-acetamide]: the IC50 turned out to be 33 nM.

For `Cc1cc(Cn2ncc(NC(=O)Cc3ccc(N4CCC(F)(F)C4)nc3)n2)ccc1C#N` [Example 167, N-[2-(4-Cyano-3-methyl-benzyl)-2H-[1,2,3]triazol-4-yl]-2-[6-(3,3-difluoro-pyrrolidin-1-yl)-pyridin-3-yl]-acetamide], the IC50 is 22 nM. As to `CCn1ncc2cc(CC(=O)Nc3cnn(Cc4ccc(C#N)c(C)c4)n3)ccc21` [Example 168, N-[2-(4-Cyano-3-methyl-benzyl)-2H-[1,2,3]triazol-4-yl]-2-(1-ethyl-1H-indazol-5-yl)-acetamide], the IC50 came to 40 nM.
